Source: PubChem BioAssay AID330 (DTP/NCI, 2004)
Toxic doses and inconclusive results are not listed.

Test system: P388 leukemia ip, CD2F1 mice, survival T/C
Experiment: NCI In Vivo Anticancer Drug Screen. Data for tumor model P388 Leukemia (intraperitoneal) in CD2F1 (CDF1) mice
Conditions: endpoint: median survival time, higher = longer survival
In short: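 Mice carrying the transplanted tumor received test compound or vehicle. Survival was recorded in each group, and the value is the treated-group measurement divided by that of the vehicle-treated control group.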

[1] = dose: 50.0 mg/kg/injection, schedule: Q01DX009 (ip), vehicle: saline with Tween-80
[2] = dose: 100.0 mg/kg/injection, schedule: Q01DX009 (ip), vehicle: saline with Tween-80
[3] = dose: 100.0 mg/kg/injection, schedule: Q04DX003 (ip), vehicle: saline with Tween-80
[4] = dose: 200.0 mg/kg/injection, schedule: Q04DX003 (ip), vehicle: saline with Tween-80
[5] = dose: 50.0 mg/kg/injection, schedule: Q01DX005 (ip), vehicle: Klucel (hydroxypropylcellulose) (HPC)
[6] = dose: 100.0 mg/kg/injection, schedule: Q01DX005 (ip), vehicle: Klucel (hydroxypropylcellulose) (HPC)
[7] = dose: 200.0 mg/kg/injection, schedule: Q01DX005 (ip), vehicle: Klucel (hydroxypropylcellulose) (HPC)

CC(C)SC(=S)Nc1cc(Cl)c(Cl)cc1Cl
T/C [1]: 98 % of control
T/C [2]: 102 % of control

CSc1nc(=S)c2[nH]c(C)nc2[nH]1
T/C (dose: 6.25 mg/kg/injection, schedule: Q04DX003 (ip), vehicle: saline): 96 % of control
T/C (dose: 12.5 mg/kg/injection, schedule: Q04DX003 (ip), vehicle: saline): 96 % of control
T/C (dose: 25.0 mg/kg/injection, schedule: Q04DX003 (ip), vehicle: saline): 100 % of control
T/C (dose: 50.0 mg/kg/injection, schedule: Q04DX003 (ip), vehicle: saline): 100 % of control

CCOC1=C(C)Sc2ccccc2N=C1c1ccccc1
T/C (dose: 100.0 mg/kg/injection, schedule: Q04DX002 (ip), vehicle: Klucel + Tween-80): 99 % of control
T/C (dose: 200.0 mg/kg/injection, schedule: Q04DX002 (ip), vehicle: Klucel + Tween-80): 93 % of control
T/C (dose: 400.0 mg/kg/injection, schedule: Q04DX002 (ip), vehicle: Klucel + Tween-80): 98 % of control

O=[N+]([O-])c1ccc(Nc2ccccc2)c2nonc12
T/C (dose: 60.0 mg/kg/injection, schedule: Q01DX005 (ip), vehicle: saline with Tween-80): 110 % of control
T/C (dose: 120.0 mg/kg/injection, schedule: Q01DX005 (ip), vehicle: saline with Tween-80): 97 % of control
T/C (dose: 240.0 mg/kg/injection, schedule: Q01DX005 (ip), vehicle: saline with Tween-80): 94 % of control

Nc1ccnc(N)c1N=O
T/C [3]: 103 % of control
T/C [4]: 99 % of control
T/C (dose: 400.0 mg/kg/injection, schedule: Q04DX003 (ip), vehicle: saline with Tween-80): 97 % of control

COc1ccc([C@@H]2c3cc4c(cc3C[C@H]3COC(=O)[C@@H]32)OCO4)cc1OC
T/C (dose: 25.0 mg/kg/injection, schedule: Q04DX002 (ip), vehicle: Klucel (hydroxypropylcellulose) (HPC)): 108 % of control
T/C (dose: 100.0 mg/kg/injection, schedule: Q04DX002 (ip), vehicle: Klucel (hydroxypropylcellulose) (HPC)): 124 % of control

COC(=O)CC(O)(CCCC(C)(C)O)C(=O)OC1C(OC)=CC23CCCN2CCc2cc4c(cc2C13)OCO4 (configuration not stated) (tested in a mixture with another compound)
T/C (dose: 0.5 mg/kg/injection, schedule: Q01DX009 (ip), vehicle: saline with Tween-80): 153 % of control
T/C (dose: 1.0 mg/kg/injection, schedule: Q01DX009 (ip), vehicle: saline with Tween-80): 201 % of control
T/C (dose: 2.0 mg/kg/injection, schedule: Q01DX009 (ip), vehicle: saline with Tween-80): 206 % of control

CC1CN2C(=O)C1(c1ccccc1)C(=O)NC2=S (configuration not stated)
T/C (dose: 50.0 mg/kg/injection, schedule: Q01DX009 (ip), vehicle: Klucel (hydroxypropylcellulose) (HPC)): 98 % of control
T/C (dose: 100.0 mg/kg/injection, schedule: Q01DX009 (ip), vehicle: Klucel (hydroxypropylcellulose) (HPC)): 107 % of control
T/C (dose: 200.0 mg/kg/injection, schedule: Q01DX009 (ip), vehicle: Klucel (hydroxypropylcellulose) (HPC)): 100 % of control

CCCCCCCCCCCCCCCCc1c(C(=O)OC)nc(N)[nH]c1=O
T/C (dose: 3.75 mg/kg/injection, schedule: Q01DX005 (ip), vehicle: saline with Tween-80): 99 % of control
T/C (dose: 7.5 mg/kg/injection, schedule: Q01DX005 (ip), vehicle: saline with Tween-80): 100 % of control
T/C (dose: 15.0 mg/kg/injection, schedule: Q01DX005 (ip), vehicle: saline with Tween-80): 103 % of control

CCCc1c2c(c(CCC)c3c1-c1cccc4cccc-3c14)-c1ccccc1C2=O
T/C [3]: 105 % of control
T/C [4]: 95 % of control

CCCCN1CC(=O)N2CCCC(c3ccccc3)N2C(=O)C1 (configuration not stated)
T/C (dose: 50.0 mg/kg/injection, schedule: Q01DX005 (ip), vehicle: saline with Tween-80): 103 % of control
T/C (dose: 100.0 mg/kg/injection, schedule: Q01DX005 (ip), vehicle: saline with Tween-80): 105 % of control
T/C (dose: 200.0 mg/kg/injection, schedule: Q01DX005 (ip), vehicle: saline with Tween-80): 103 % of control

C[Si]1(C)O[Si](C)(C)O[Si](C)(C)O[Si](C)(C)O1
T/C [5]: 100 % of control
T/C [6]: 97 % of control
T/C [7]: 97 % of control

O=C(Cc1cccs1)c1ccc(O)cc1
T/C [5]: 99 % of control
T/C [6]: 102 % of control
T/C [7]: 105 % of control

N#Cc1c(NC(=S)NC(=O)c2ccc(Cl)c(Cl)c2)sc(=S)c2c1CCCC2
T/C [1]: 108 % of control
T/C [2]: 96 % of control
T/C (dose: 200.0 mg/kg/injection, schedule: Q01DX009 (ip), vehicle: saline with Tween-80): 92 % of control

C/C(=C\C(=N\N=C(N)N)c1ccc(Cl)cc1)c1ccc(Cl)cc1
T/C (dose: 6.25 mg/kg/injection, schedule: Q01DX009 (ip), vehicle: saline with Tween-80): 118 % of control
T/C (dose: 12.5 mg/kg/injection, schedule: Q01DX009 (ip), vehicle: saline with Tween-80): 98 % of control
